From patent US20080051418A1, “Arylalkanoic Acid Derivative” (priority 2004, published 2008) come the findings set out here.

One series deals with T1, PPARγ-RXRα heterodimer (Homo sapiens, UniProt P37231).
T1 construct: expressed in transfected cells; host or cells: CHO-K1
T1 sequence (P37231 1-505): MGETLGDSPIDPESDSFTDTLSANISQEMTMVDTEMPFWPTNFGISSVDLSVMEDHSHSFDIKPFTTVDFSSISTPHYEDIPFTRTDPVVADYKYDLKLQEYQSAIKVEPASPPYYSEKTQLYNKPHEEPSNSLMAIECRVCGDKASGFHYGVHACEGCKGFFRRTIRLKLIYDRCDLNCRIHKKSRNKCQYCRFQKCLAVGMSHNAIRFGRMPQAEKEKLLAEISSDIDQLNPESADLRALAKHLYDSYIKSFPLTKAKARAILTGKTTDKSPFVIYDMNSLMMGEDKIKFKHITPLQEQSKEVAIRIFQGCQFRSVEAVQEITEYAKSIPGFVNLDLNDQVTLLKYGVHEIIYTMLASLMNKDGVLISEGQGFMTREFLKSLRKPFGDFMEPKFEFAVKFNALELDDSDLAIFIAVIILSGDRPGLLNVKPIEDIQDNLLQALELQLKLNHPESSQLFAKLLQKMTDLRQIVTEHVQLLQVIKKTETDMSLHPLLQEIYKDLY
T1 sequence (P19793 1-462 partner): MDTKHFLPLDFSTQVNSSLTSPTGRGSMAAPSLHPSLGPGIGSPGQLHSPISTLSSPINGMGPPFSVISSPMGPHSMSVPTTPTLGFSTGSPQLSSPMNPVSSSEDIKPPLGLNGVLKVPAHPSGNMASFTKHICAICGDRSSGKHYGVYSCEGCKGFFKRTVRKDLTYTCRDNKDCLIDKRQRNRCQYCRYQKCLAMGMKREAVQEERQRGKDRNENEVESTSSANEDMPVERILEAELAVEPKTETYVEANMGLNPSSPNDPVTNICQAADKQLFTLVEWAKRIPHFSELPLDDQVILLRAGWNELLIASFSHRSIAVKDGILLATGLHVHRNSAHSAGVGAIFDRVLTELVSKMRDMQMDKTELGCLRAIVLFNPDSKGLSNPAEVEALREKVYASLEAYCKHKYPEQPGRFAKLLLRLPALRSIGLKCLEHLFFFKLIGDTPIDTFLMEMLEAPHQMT
Nature of the series: PPARγ-RXRα heterodimer ligand activity (luciferase reporter). It counts as cell-based. To be noted: PPARγ:RXRα:4ERPP/CHO-K1 cells, 18-24 hr, concentration showing 50% of the maximum induction rate. As for the experimental part:
The PPARγ:RXRα:4ERPP/CHO-K1 cells described in WO03/099793 were cultured in a Ham F12 medium [manufactured by Life Technologies, Inc., US] containing 10% calf fetal serum [manufactured by Life Technologies, Inc., US], sown in a 96-well white plate [manufactured by Corning Coster Corporation, US] at 2×10^4 cells/well, and incubated overnight in a carbon dioxide gas incubator at 37° C.
Then, the medium was removed from the 96 well white plate, 80 μl of Ham F12 medium containing 0.1% fatty acid-free bovine serum albumin (BSA) and a test compound (20 μl) were added, and the cells were incubated for 18-24 hr in a carbon dioxide gas incubator at 37° C. The medium was removed, 40 μl of PicaGene 7.5 (manufactured by Wako Pure Chemical Industries, Ltd.) diluted 2-fold with HBSS (HANKS' BALANCED SALT SOLUTION) [manufactured by BIO WHITTAKER, US] was added. After stirring, the luciferase activity was determined using the 1420 ARVO Multilabel Counter [manufactured by PerkinElmer, US].
The induction rate was calculated from the luciferase activity of each test compound based on the luciferase activity of the test compound non-administration group as 1. The test compound concentration and the induction rate were analyzed by PRISM [manufactured by GraphPad Software, Inc., US] to calculate EC50 value (compound concentration showing 50% of the maximum value of induction rate) of the test compound.

Where a name gives a salt, the structure may show the parent alone.

Compound `CCCOc1cc(CCCOc2c(CC(=O)O)cccc2OC)n(C(C)c2ccc(Cl)cc2Cl)n1` (stereo not shown) [Example 19, [2-(3-{1-[1-(2,4-dichlorophenyl)ethyl]-3-propoxy-1H-pyrazol-5-yl}propoxy)-3-methoxyphenyl]acetic acid] registered an EC50 on PPARγ-RXRα heterodimer of 3.2 nM. That is a single-digit nanomolar value.

On to `CC(C)c1cc(CCCOc2nn(C)cc2CC(=O)O)n(Cc2ccc(Cl)cc2Cl)n1` [Example 33, (3-{3-[1-(2,4-dichlorobenzyl)-3-isopropyl-1H-pyrazol-5-yl]propoxy}-1-methyl-1H-pyrazol-4-yl)acetic acid], for which the melting point fell in the range of 67 to 68 °C. At PPARγ-RXRα heterodimer, the EC50 came to 30 nM.

As to `CC(C)c1cc(CCCOc2nn(Cc3ccccc3)cc2CC(=O)O)n(Cc2ccc(Cl)cc2Cl)n1` [Example 34, (1-benzyl-3-{3-[1-(2,4-dichlorobenzyl)-3-isopropyl-1H-pyrazol-5-yl]propoxy}-1H-pyrazol-4-yl)acetic acid 1/2 calcium salt], at PPARγ-RXRα heterodimer, the EC50 worked out at 1.7 nM.

The compound `COc1cccc(CC(=O)O)c1OCCCc1cc(C(C)C)nn1Cc1ccc(Cl)cc1Cl` [Example 35, (2-{3-[1-(2,4-dichlorobenzyl)-3-isopropyl-1H-pyrazol-5-yl]propoxy}-3-methoxyphenyl)acetic acid] came in with a melting point of 101 to 102 °C. In addition, at PPARγ-RXRα heterodimer, the EC50 stood at 2.7 nM.

On to `Cc1nc(OCCCc2cc(OC(C)C)nn2Cc2ccc(Cl)cc2Cl)c(CC(=O)O)s1` [Example 36, (4-{3-[1-(2,4-dichlorobenzyl)-3-isopropoxy-1H-pyrazol-5-yl]propoxy}-2-methyl-1,3-thiazol-5-yl)acetic acid], for which the melting point lay in the range of 75 to 77 °C. On PPARγ-RXRα heterodimer, this compound came in with an EC50 of 20 nM.

As for `CC(C)c1cc(CCCOc2ncccc2CC(=O)O)n(Cc2ccc(Cl)cc2Cl)n1` [Example 37, (2-{3-[1-(2,4-dichlorobenzyl)-3-isopropyl-1H-pyrazol-5-yl]propoxy}pyridin-3-yl)acetic acid], the melting point was 111 to 112 °C. This compound registered a half-maximal effective concentration (EC50) at PPARγ-RXRα heterodimer of 6.4 nM.

For `CCCOc1cc(CCCOc2c(CC(=O)O)cccc2OC)n(Cc2ccc(C(F)(F)F)cc2)n1` [Example 59, [3-methoxy-2-(3-{3-propoxy-1-[4-(trifluoromethyl)benzyl]-1H-pyrazol-5-yl}propoxy)phenyl]acetic acid], the melting point was in the range of 122 to 123 °C. Also, a half-maximal effect at PPARγ-RXRα heterodimer (EC50) was put at 23 nM.

As to `CC(C)Oc1cc(CCCOc2nn(Cc3ccccc3)cc2CC(=O)O)n(Cc2ccc(Cl)cc2OC(C)C)n1` [Example 71, (1-benzyl-3-{3-[1-(4-chloro-2-isopropoxybenzyl)-3-isopropoxy-1H-pyrazol-5-yl]propoxy}-1H-pyrazol-4-yl)acetic acid], at PPARγ-RXRα heterodimer, it took 39 nM to reach a half-maximal effect (EC50).

`Cc1cc(Cl)ccc1Cn1nc(OC(C)C)cc1CCCOc1nn(Cc2ccccc2)cc1CC(=O)O` [Example 73, (1-benzyl-3-{3-[1-(4-chloro-2-methylbenzyl)-3-isopropoxy-1H-pyrazol-5-yl]propoxy}-1H-pyrazol-4-yl)acetic acid] displayed a melting point of 81 to 82 °C. The same compound gave an EC50 at PPARγ-RXRα heterodimer of 3 nM.

In turn, `CC(C)c1cc(CCCOc2nn(Cc3ccccc3)cc2CC(=O)O)n(Cc2ccc(C(F)(F)F)cc2Cl)n1` [Example 75, [1-benzyl-3-(3-{1-[2-chloro-4-(trifluoromethyl)benzyl]-3-isopropyl-1H-pyrazol-5-yl}propoxy)-1H-pyrazol-4-yl]acetic acid] registered an EC50 on PPARγ-RXRα heterodimer of 1.9 nM.

Take `Cc1cc(C(F)(F)F)ccc1Cn1nc(OC(C)C)cc1CCCOc1ncccc1CC(=O)O` [Example 80, [2-(3-{3-isopropoxy-1-[2-methyl-4-(trifluoromethyl)benzyl]-1H-pyrazol-5-yl}propoxy)pyridin-3-yl]acetic acid]: the melting point fell in the range of 105 to 107 °C. The EC50 at PPARγ-RXRα heterodimer was found to be 5.4 nM.

`CCCOc1cc(CCCOc2c(CC(=O)O)cccc2OC)n(Cc2ccc(F)cc2F)n1` [Example 82, (2-{3-[1-(2,4-difluorobenzyl)-3-propoxy-1H-pyrazol-5-yl]propoxy}-3-methoxyphenyl)acetic acid] returned a melting point of 77 to 80 °C. Further, at PPARγ-RXRα heterodimer, it took 26 nM to reach a half-maximal effect (EC50).

Turning to `CC(C)Oc1ccc(CCCOc2nn(C)cc2CCC(=O)O)c(Oc2ncc(C(F)(F)F)cc2Cl)c1` [Example 145, 3-{3-[3-(2-{[3-chloro-5-(trifluoromethyl)pyridin-2-yl]oxy}-4-isopropoxyphenyl)propoxy]-1-methyl-1H-pyrazol-4-yl}propanoic acid], on PPARγ-RXRα heterodimer, the EC50 turned out to be 2.6 nM.

Consider `CCOc1nn(Cc2ccc(Cl)cc2Cl)cc1CCCOc1nn(-c2ccccc2)cc1CCC(=O)O` [Example 193, 3-(3-{3-[1-(2,4-dichlorobenzyl)-3-ethoxy-1H-pyrazol-4-yl]propoxy}-1-phenyl-1H-pyrazol-4-yl)propanoic acid], for which the melting point lay within 114 to 118 °C.

`CC(C)Oc1cc(COc2cc(CCC(=O)O)n(C)n2)cc(COc2ccc(Cl)cc2Cl)c1` [Example 194, 3-[3-({3-[(2,4-dichlorophenoxy)methyl]-5-isopropoxybenzyl}oxy)-1-methyl-1H-pyrazol-5-yl]propanoic acid]: the melting point fell in the range of 105 to 106 °C.

With `CC(C)Oc1cc(COc2cc(CCC(=O)O)n(-c3ccccc3)n2)cc(COc2ccc(Cl)cc2Cl)c1` [Example 195, 3-[3-({3-[(2,4-dichlorophenoxy)methyl]-5-isopropoxybenzyl}oxy)-1-phenyl-1H-pyrazol-5-yl]propanoic acid], the melting point is 108 to 110 °C.

`CC(C)Oc1cc(CCCOc2cc(CCC(=O)O)n(C)n2)cc(COc2ccc(Cl)cc2Cl)c1` [Example 197, 3-[3-(3-{3-[(2,4-dichlorophenoxy)methyl]-5-isopropoxyphenyl}propoxy)-1-methyl-1H-pyrazol-5-yl]propanoic acid] showed a melting point of 116 to 120 °C.

Regarding `O=C(O)CCc1cc(OCc2cc(COc3ccc(Cl)cc3Cl)cc(OCc3ccccc3)c2)nn1-c1ccccc1` [Example 198, 3-[3-({3-(benzyloxy)-5-[(2,4-dichlorophenoxy)methyl]benzyl}oxy)-1-phenyl-1H-pyrazol-5-yl]propanoic acid], the melting point was in the range of 126 to 130 °C.

In turn, `CCOCc1cc(COc2cc(CCC(=O)O)n(-c3ccccc3)n2)cc(Oc2ncc(C(F)(F)F)cc2Cl)c1` [Example 199, 3-(3-{[3-{[3-chloro-5-(trifluoromethyl)pyridin-2-yl]oxy}-5-(ethoxymethyl)benzyl]oxy}-1-phenyl-1H-pyrazol-5-yl)propanoic acid] displayed a melting point of 124 to 128 °C.

Turning to `CC(C)Oc1cc(COc2ccc(C(F)(F)F)cc2)cc(COc2cc(CCC(=O)O)n(-c3ccccc3)n2)c1` [Example 202, 3-{3-[(3-isopropoxy-5-{[4-(trifluoromethyl)phenoxy]methyl}benzyl)oxy]-1-phenyl-1H-pyrazol-5-yl}propanoic acid], the melting point lay within 55 to 58 °C.

With `CC(C)Oc1cc(COc2cc(CCC(=O)O)n(-c3ccccc3)n2)cc(COc2ncc(C(F)(F)F)cc2Cl)c1` [Example 203, 3-(3-{[3-({[3-chloro-5-(trifluoromethyl)pyridin-2-yl]oxy}methyl)-5-isopropoxybenzyl]oxy}-1-phenyl-1H-pyrazol-5-yl)propanoic acid], the melting point lay within 140 to 142 °C.

The compound `CCOc1cc(COc2cc(CCC(=O)O)n(-c3ccccc3)n2)cc(COc2ccc(Cl)cc2Cl)c1` [Example 204, 3-[3-({3-[(2,4-dichlorophenoxy)methyl]-5-ethoxybenzyl}oxy)-1-phenyl-1H-pyrazol-5-yl]propanoic acid] returned a melting point of 151.5 to 152 °C.

`COCOc1cc(CCCOc2ncccc2CC(=O)O)n(Cc2ccc(Cl)cc2Cl)n1` [Example 207, (2-{3-[1-(2,4-dichlorobenzyl)-3-(methoxymethoxy)-1H-pyrazol-5-yl]propoxy}pyridin-3-yl)acetic acid] gave a melting point of 101 to 102 °C.
